Measured values reported in ChEMBL document CHEMBL1799975 (J Med Chem, 2011).

Key:
[1] = Lipophilicity, log D of the compound at pH 7.4 by HPLC analysis; assay type: physicochemical; conditions: buffer
[2] = Cmax in rat at 0.1 mg/kg, iv by LC-MS-MS analysis; assay type: ADME, organism-based; parameters: dose 0.1 mg/kg, route intravenous; conditions: in vivo
[3] = Mean residence time in rat at 0.1 mg/kg, po by LC-MS-MS analysis; assay type: ADME, organism-based; parameters: dose 0.1 mg/kg, route oral; conditions: in vivo
[4] = Drug level in rat plasma at 0.2 mg/kg, iv after 30 mins by LC-MS-MS analysis; assay type: ADME, organism-based; parameters: dose 0.2 mg/kg, route intravenous
[5] = Oral bioavailability in rat at 0.1 mg/kg by LC-MS-MS analysis; assay type: ADME, organism-based; conditions: in vivo
[6] = Drug level in rat brain at 0.2 mg/kg, iv after 15 mins by LC-MS-MS analysis; assay type: ADME, organism-based; parameters: dose 0.2 mg/kg, route intravenous; conditions: read-out: Drug uptake
[7] = Drug level in rat plasma at 0.2 mg/kg, iv after 15 mins by LC-MS-MS analysis; assay type: ADME, organism-based; parameters: dose 0.2 mg/kg, route intravenous
[8] = Ratio of drug level in brain to plasma of rat at 0.2 mg/kg, iv after 30 mins by LC-MS-MS analysis; assay type: ADME, organism-based; parameters: dose 0.2 mg/kg, route intravenous; conditions: read-out: BPR
[9] = Ratio of drug level in brain to plasma of rat at 0.2 mg/kg, iv after 15 mins by LC-MS-MS analysis; assay type: ADME, organism-based; parameters: dose 0.2 mg/kg, route intravenous; conditions: read-out: BPR
[10] = Drug level in rat brain at 0.2 mg/kg, iv after 30 mins by LC-MS-MS analysis; assay type: ADME, organism-based; parameters: dose 0.2 mg/kg, route intravenous; conditions: read-out: Drug uptake
[11] = AUC in rat at 0.1 mg/kg, po by LC-MS-MS analysis; assay type: ADME, organism-based; parameters: dose 0.1 mg/kg, route oral; conditions: plasma
[12] = Volume of distribution at steady state in rat at 0.1 mg/kg, iv by LC-MS-MS analysis; assay type: ADME, organism-based; parameters: dose 0.1 mg/kg, route intravenous; conditions: in vivo, read-out: Vdss

| SMILES | logD [1] | further results |
| --- | --- | --- |
| CC(=O)NCCc1c(C(F)(F)F)nn2ccc3c(c12)CCO3 | 1.64 | – |
| CCC(=O)NCCc1c(C)nn2ccc3c(c12)CCO3 | 1.39 | – |
| CCC(=O)NCCc1c(CC)nn2ccc3c(c12)CCO3 | 1.71 | – |
| CCC(=O)NCCc1c(C(F)(F)F)nn2ccc3c(c12)CCO3 | 1.94 | – |
| COc1ccc2[nH]cc(CCNC(C)=O)c2c1 [MELATONIN] | 0.5 | – |
| CCC(=O)NCCc1c(C2CC2)nn2ccc3c(c12)CCO3 | 1.89 | – |

Second part, led by results:

| logD [1] | SMILES | further results |
| --- | --- | --- |
| 1.39 | CC(=O)NCCn1c(-c2ccccc2)nc2ccc3c(c21)CCO3 | – |
| 1.04 | CC(=O)NCCc1c(C)nn2ccc3c(c12)CCO3 | – |
| 3.49 | CC(=O)NCCC1=C(c2ccccc2)Cc2ccc3c(c21)CCO3 | – |
| 2.04 | CC(=O)NCCc1c(-c2ccccc2)nn2ccc3c(c12)CCO3 | – |
| 1.48 | CCc1nn2ccc3c(c2c1CCNC(C)=O)CCO3 | Cmax [2]: 12.4 ng/mL; MRT [3]: 57 min; concentration at 0.5 h [4]: 55.9 ng/mL; bioavailability [5]: 19.7%; concentration at […] [6]: 23.7 ng/g; concentration at […] [7]: 83.2 ng/mL; Kp at 0.5 h [8]: 0.22; Kp at […] [9]: 0.28; concentration at 0.5 h [10]: 12.4 ng/g; AUC [11]: 14.4 ng·h/mL; Vd [12]: 0.664 L/kg |
| 1.61 | CC(=O)NCCc1c(C2CC2)nn2ccc3c(c12)CCO3 | – |
| 1.66 | CC(=O)NCCc1c(-c2ccccc2)nc2ccc3c(n12)CCO3 | – |
